Measured values: patent publication US9109041B2, “Analog compounds of analgesic peptides derived from the venom of crotalus durissus terrificus snakes, their uses, compositions, methods of preparation and purification” (priority 2004, dated 2015)
Bridges are numbered along the chain shown (N, C = ends). Where no end group is shown, it is not given here. [ ]: non-standard residue; d: D form. pGlu = O=C1CC[C@@H](C(=O)O)N1

Tested on: prostaglandin E2-induced hyperalgesia
Experiment: rat paw pressure test, prostaglandin E2-induced hyperalgesia
Details: for analgesic activity: synthetic peptides compared with natural ENPAK-k, similar conditions; for pain threshold, FM (g) ± S.E.M: 3 h after PGE2 100 ng/paw i.pl.
[1] = oral route, reversal of PGE2-induced hyperalgesia, CurveExpert 1.3

SEQ ID NO: 3: one of 4 possible sequences pGlu-Phe-Ser-Pro-Glu-Asn-Cys-Lys/Gln-Gly-Glu-Ser-Lys/Gln-Pro-Cys; modified synthetic peptide (XFSPENCQGESKPC; Synthetically generated peptide)
pain threshold, FM (grams) ± S.E.M. (p.o., 2 ml of solution (peptide diluted in 11 ml of saline), 3 hours after PGE2 100 ng/paw i.pl.): 110 ± 2.74 grams | pain threshold, IM (grams) ± S.E.M. (p.o., 2 ml of solution (peptide diluted in 11 ml of saline), before PGE2): 76 ± 1.00 grams | analgesic activity: demonstrated analgesic activity

CN1CC[C@]23c4c5ccc(O)c4O[C@H]2[C@@H](O)C=C[C@H]3[C@H]1C5 [Morphine, reference compound]
pain threshold, FM (g) ± S.E.M (morphine 0.004 μg/kg p.o.): 69 ± 1.87 g | pain threshold, IM (g) ± S.E.M. (morphine 0.004 μg/kg p.o., before PGE2): 77 ± 1.22 g | pain threshold, FM (g) ± S.E.M (morphine 0.2 μg/kg p.o.): 70 ± 1.58 g | pain threshold, IM (g) ± S.E.M. (morphine 0.2 μg/kg p.o., before PGE2): 76 ± 1.87 g | pain threshold, FM (g) ± S.E.M (morphine 1 μg/kg p.o.): 85 ± 1.58 g | pain threshold, IM (g) ± S.E.M. (morphine 1 μg/kg p.o., before PGE2): 78 ± 1.22 g | pain threshold, FM (g) ± S.E.M (morphine 5 μg/kg p.o.): 109 ± 1.87 g | pain threshold, IM (g) ± S.E.M. (morphine 5 μg/kg p.o., before PGE2): 78 ± 1.22 g | 50% effective dose [1]: 0.05515 µg/kg | 90% effective dose [1]: 0.3267 µg/kg

SEQ ID NO: 6: one of 4 possible sequences pGlu-Phe-Ser-Pro-Glu-Asn-Cys-Lys/Gln-Gly-Glu-Ser-Lys/Gln-Pro-Cys; synthetic peptide (XFSPENCKGESQPC; Synthetically generated peptide)
analgesic activity: inactivity

SEQ ID NO: 7: one of 4 possible sequences pGlu-Phe-Ser-Pro-Glu-Asn-Cys-Lys/Gln-Gly-Glu-Ser-Lys/Gln-Pro-Cys; synthetic peptide ([pGlu]FSPENCKGESKPC; disulfide 7-14)
analgesic activity: inactivity
